Experimental findings from US11331299B2, “Medicinal use of serrulatane diterpenes” (The University of Sydney, priority 2016, dated 2022) are described below.

One series addresses T1, CYP2C8 (Homo sapiens, UniProt P10632).
T1 construct: Human liver microsomes; from tissue; host or cells: human liver microsomes
T1 sequence (P10632 1-490): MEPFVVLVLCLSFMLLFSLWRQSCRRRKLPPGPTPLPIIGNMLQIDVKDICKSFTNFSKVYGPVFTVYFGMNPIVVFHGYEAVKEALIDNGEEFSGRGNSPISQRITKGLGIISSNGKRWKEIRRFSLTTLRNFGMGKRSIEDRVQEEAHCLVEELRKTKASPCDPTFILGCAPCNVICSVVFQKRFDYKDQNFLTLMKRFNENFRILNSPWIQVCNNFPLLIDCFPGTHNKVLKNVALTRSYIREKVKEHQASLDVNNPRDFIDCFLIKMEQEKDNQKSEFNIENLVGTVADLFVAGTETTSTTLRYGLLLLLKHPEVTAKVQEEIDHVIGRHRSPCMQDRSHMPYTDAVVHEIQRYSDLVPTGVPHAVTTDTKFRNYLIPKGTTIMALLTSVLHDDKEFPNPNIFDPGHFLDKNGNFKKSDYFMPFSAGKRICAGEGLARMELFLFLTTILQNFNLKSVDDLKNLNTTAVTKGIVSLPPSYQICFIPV
Kind of series: Cytochrome P450 Inhibition (CYP panel). In kind it is in vitro ADME. The settings on record: probe paclitaxel.

In series [1] the target is CYP2D6 (Dextromethorphan Substrate) (Homo sapiens, UniProt P10635). Description: Cytochrome P450 Inhibition (CYP panel). The settings on record: CYP2D6 (dextromethorphan sub.); Human liver microsomes; 1 μM. Background: Microsomes from liver hold many membrane-bound enzymes, among them those of drug oxidation.
CYP2D6 (Dextromethorphan Substrate), sequence (P10635 whole entry): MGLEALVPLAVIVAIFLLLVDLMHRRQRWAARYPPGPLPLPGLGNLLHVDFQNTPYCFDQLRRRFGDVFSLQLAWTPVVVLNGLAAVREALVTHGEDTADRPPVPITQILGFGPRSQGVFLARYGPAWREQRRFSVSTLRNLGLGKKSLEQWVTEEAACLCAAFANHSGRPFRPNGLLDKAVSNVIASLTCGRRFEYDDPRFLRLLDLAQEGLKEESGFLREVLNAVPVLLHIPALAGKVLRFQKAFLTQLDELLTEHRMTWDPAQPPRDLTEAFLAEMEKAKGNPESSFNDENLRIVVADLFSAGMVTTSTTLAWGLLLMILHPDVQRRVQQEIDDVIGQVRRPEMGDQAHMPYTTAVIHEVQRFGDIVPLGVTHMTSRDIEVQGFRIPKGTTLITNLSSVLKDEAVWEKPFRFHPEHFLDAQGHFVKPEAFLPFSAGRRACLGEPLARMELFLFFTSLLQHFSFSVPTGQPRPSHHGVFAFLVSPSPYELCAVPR
Another series relates to Hs 852.T. Description: OncoPanel cell proliferation assay (10-day). In kind it is cell-based, human. The settings on record: for EC50 / GI50 / IC50: Homo sapiens, Skin (Melanoma); for EC50: read-out: Cell Count EC50; for GI50: read-out: Cell Count GI50; for IC50: read-out: Cell Count IC50.
The next series has as its target T2, PB1(3) (h) bromodomain (Homo sapiens, UniProt Q86U86).
T2 construct: Bromodomain
Kind of series: Epigenetic binding assay, Bromodomain. The settings on record: read-out: % Inhibition of Control Specific Binding.

A further series has as its target T3, Chemokine CX3CR1 (Homo sapiens, UniProt P49238).
T3 construct: expressed in transfected cells; host or cells: Chem-1 cells
T3 sequence (P49238 1-355): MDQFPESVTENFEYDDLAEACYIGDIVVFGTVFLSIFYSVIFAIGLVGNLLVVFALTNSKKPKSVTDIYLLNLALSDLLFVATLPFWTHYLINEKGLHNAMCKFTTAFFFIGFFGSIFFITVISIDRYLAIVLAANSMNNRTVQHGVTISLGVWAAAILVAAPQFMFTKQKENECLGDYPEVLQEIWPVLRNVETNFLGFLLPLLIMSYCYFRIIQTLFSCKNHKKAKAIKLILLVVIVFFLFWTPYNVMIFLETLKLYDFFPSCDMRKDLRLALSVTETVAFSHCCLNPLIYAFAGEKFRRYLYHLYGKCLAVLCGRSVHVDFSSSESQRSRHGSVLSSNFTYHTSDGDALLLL
Description: Chemokine CX3CR1 radio ligand binding. The settings on record: assay year 2015. How it is done:
(§1) The in vitro pharmacological studies were conducted by Eurofins PanLab (Taiwan) using the parameters shown in Table 13 with respect to appropriate literature references.

A further series addresses DNMT1 (h) (Homo sapiens, UniProt P26358). Description: Epigenetic enzyme assay, DNA methyltransferases (DNMTs). In kind it is biochemical. As to conditions: read-out: % Inhibition of Control Values.
Another series concerns the target DNMT3b (Homo sapiens, UniProt Q9UBC3). The series is described as above. In kind it is biochemical. As to conditions: for inhibition at 10 µM: read-out: % Inhibition of Control Values.
The target of another series is T4, TAF1(1) (h) bromodomain (Homo sapiens, UniProt P21675).
T4 construct: Bromodomain
T4 sequence (P21675 1397-1505 limits assumed): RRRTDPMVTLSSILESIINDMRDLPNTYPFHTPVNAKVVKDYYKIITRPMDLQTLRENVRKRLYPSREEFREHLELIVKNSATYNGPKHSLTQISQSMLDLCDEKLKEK
Kind of series: Epigenetic binding assay, Bromodomain. The settings on record: 10 μM; read-out: % Inhibition of Control Specific Binding.

For series [2], the target named is T5, KAT2A (GCN5L2) (h) bromodomain (Homo sapiens, UniProt Q92830).
T5 construct: Bromodomain
T5 sequence (Q92830 728-832 limits assumed): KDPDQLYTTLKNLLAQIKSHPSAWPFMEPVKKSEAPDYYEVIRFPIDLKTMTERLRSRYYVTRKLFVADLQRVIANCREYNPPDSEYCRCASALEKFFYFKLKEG
Kind of series: Epigenetic binding assay, Bromodomain. The settings on record: for inhibition at 10 µM: read-out: % Inhibition of Control Specific Binding.

In series [3] the target is T6, Protein Tyrosine Phosphatase, PTPN1 (PTP1B) (Homo sapiens, UniProt P18031).
T6 construct: host or cells: E. coli
T6 sequence (P18031 1-435): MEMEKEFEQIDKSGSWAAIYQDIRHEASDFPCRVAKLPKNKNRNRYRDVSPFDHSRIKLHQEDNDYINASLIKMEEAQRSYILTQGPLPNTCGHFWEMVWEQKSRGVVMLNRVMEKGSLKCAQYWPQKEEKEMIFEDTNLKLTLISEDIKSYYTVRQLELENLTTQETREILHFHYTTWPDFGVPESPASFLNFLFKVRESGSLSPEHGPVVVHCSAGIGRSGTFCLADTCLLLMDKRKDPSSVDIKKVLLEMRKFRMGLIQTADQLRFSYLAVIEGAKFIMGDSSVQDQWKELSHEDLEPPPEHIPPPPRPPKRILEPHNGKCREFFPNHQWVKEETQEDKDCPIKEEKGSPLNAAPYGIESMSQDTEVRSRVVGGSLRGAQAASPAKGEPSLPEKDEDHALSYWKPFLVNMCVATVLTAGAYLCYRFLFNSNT
Description: Protein Tyrosine Phosphatase, PTPN1 (PTP1B). The format is biochemical. As to conditions: assay year 2015, read-out: % Control Response. How it is done: as §1

The target in another series is JARID1C (h) (Homo sapiens, UniProt P41229). Description: Epigenetic enzyme assay, Demethylases (KDMs). The format is biochemical. The settings on record: read-out: % Inhibition of Control Values.
JARID1C (h), sequence (P41229 whole entry): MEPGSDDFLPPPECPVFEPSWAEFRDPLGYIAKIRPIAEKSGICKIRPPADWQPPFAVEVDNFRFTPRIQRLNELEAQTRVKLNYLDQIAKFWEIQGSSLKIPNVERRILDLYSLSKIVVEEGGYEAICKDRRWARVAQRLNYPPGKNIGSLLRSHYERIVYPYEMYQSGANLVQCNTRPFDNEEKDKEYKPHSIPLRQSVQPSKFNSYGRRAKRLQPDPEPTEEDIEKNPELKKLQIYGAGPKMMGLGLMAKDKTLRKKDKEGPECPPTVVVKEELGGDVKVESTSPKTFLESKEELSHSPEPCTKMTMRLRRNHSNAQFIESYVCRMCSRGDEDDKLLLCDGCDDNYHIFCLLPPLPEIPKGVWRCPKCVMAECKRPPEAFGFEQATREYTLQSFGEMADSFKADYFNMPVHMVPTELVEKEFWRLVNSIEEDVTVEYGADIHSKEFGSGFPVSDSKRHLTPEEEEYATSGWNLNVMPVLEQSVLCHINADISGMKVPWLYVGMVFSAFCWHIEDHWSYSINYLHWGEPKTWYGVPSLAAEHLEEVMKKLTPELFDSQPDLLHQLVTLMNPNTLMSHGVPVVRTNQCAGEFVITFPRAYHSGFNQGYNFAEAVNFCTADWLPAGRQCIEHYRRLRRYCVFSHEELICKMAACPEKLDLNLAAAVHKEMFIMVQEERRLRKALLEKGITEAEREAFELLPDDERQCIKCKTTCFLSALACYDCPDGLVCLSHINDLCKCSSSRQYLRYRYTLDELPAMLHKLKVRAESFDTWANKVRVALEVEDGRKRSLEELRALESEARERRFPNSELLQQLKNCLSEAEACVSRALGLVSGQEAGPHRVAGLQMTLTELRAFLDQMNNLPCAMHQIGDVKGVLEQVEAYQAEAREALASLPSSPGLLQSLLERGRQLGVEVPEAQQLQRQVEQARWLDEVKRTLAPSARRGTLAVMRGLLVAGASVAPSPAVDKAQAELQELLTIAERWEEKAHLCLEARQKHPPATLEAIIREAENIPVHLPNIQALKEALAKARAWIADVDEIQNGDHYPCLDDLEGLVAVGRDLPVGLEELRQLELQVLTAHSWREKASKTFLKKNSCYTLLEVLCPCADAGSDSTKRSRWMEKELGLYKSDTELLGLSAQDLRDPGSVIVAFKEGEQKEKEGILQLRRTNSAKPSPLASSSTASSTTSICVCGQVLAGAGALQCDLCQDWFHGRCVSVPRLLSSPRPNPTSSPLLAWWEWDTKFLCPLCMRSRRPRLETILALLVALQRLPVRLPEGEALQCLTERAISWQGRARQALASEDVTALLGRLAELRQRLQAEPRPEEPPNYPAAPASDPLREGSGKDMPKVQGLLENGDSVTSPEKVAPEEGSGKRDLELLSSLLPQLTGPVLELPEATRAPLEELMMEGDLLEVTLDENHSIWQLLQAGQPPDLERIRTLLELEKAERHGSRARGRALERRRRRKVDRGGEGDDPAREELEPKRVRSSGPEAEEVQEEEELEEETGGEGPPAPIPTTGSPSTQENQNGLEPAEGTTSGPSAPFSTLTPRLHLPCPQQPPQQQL
A further series relates to H3K27 me3. Description: Cell-based detection methyl modifications. The settings on record: read-out: % Inhibition of Control Values.
Setting [4] is: human, human liver microsomes, read-out: % inhibition.
Setting [5] is: CYP2C8 (paclitaxel sub.), Human liver microsomes, read-out: % Inhibition of Control Values.

Where two headings read alike, the source gives them in different places.

DNMT1 (h), sequence (P26358 whole entry): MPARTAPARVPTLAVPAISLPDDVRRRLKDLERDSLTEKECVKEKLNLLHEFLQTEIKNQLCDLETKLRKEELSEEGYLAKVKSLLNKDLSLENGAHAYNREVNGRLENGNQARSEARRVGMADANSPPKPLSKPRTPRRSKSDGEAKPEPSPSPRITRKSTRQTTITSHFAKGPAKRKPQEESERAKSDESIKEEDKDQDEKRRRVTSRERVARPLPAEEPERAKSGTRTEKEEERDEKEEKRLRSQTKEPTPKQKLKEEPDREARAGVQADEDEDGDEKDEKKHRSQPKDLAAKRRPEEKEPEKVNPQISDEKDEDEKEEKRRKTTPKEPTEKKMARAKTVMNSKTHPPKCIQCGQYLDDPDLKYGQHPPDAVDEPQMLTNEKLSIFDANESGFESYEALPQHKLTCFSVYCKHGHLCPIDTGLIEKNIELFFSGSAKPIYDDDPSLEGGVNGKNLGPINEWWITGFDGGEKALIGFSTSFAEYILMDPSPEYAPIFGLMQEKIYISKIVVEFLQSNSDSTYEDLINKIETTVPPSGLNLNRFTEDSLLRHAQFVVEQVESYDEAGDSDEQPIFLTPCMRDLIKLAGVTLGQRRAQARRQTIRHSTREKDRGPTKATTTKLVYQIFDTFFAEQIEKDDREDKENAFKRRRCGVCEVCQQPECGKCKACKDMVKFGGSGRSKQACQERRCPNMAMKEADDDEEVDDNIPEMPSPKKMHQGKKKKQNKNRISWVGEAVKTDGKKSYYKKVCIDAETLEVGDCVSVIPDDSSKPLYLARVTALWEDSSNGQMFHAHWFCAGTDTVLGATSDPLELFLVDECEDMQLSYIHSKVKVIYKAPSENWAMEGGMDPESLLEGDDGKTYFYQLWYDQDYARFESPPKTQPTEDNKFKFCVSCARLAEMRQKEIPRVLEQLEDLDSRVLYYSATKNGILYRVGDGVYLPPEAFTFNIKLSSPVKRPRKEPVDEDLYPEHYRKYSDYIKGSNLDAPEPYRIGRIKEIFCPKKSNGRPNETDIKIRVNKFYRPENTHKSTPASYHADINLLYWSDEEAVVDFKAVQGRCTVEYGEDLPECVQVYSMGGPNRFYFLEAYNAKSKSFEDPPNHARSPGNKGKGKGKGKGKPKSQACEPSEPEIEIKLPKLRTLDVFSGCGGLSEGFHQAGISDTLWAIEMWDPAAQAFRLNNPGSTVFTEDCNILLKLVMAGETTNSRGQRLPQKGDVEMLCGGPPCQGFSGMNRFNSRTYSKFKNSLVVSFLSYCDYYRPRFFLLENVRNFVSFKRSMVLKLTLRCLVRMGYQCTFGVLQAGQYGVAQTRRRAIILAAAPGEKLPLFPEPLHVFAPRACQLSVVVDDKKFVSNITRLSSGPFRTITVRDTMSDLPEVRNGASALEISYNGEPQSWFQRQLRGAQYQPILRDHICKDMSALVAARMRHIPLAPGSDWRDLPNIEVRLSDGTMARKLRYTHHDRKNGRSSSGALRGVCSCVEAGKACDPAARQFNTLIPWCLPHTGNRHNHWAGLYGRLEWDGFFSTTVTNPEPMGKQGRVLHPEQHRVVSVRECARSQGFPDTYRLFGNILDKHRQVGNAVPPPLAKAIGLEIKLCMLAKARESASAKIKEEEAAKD
T2 sequence (Q86U86 381-487 limits assumed): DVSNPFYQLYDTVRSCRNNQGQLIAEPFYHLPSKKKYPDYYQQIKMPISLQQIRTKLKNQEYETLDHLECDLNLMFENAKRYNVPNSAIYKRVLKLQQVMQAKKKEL

The inhibition is the change of the read-out against control, counted positive when it falls. The term EC50 denotes the concentration giving half of the maximal effect. A word on the GI50: it is the concentration that inhibits growth by half. Usually IC50 stands for the concentration at which inhibition is half-maximal. Take `CC(C)=CCC[C@H](C)[C@@H]1CC[C@@H](C)c2c1cc(C)c(O)c2O` [Compound 4, 7,8-dihydroxyserrulat-14-ene]: the inhibition at 1 µM at CYP2C8 (setting [4]) is 12 to 24%. Also, at CYP2C8 (setting [5]), the inhibition at 1 µM turned out to be 24% and the inhibition at 10 µM turned out to be 61%. Further, in series [1], the “% Inhibition of Control Values” is on record as 21%. In the series on Hs 852.T, the concentration giving a half-maximal response (EC50) worked out at 12 µM, the 50% growth inhibitory concentration (GI50) came to 11.6 µM and the half-maximal inhibitory concentration (IC50) stood at 12 µM.

In the case of `CC(C)=CCC[C@@H]1COc2c(C)cc(O)c3c2[C@H]1CC[C@H]3C` [Compound 3, 5,18-epoxy-8-hydroxyserrulat-14-ene], the inhibition at 10 µM on PB1(3) (h) bromodomain was 6%; at DNMT1 (h) it was -5%; on DNMT3b it was -4%; at TAF1(1) (h) bromodomain, 17%; in series [2] (10 μM), 18%; at JARID1C (h), 25%. In addition, the inhibition at 10 µM with H3K27 me3 amounted to 0%. Also, the percent of control response at 10 µM at Chemokine CX3CR1 came to 7%. For the same molecule, the remaining activity at 10 µM in series [3] is -3%.

For the molecule `CC(C)=CCC[C@@H]1C(O)Oc2c(C)cc(O)c3c2[C@H]1CC[C@H]3C` (stereo partly shown) [Compound 2, 5,18-epoxyserrulat-14-en-8,18-diol], the inhibition at 10 µM is 13% on PB1(3) (h) bromodomain; 4% at DNMT1 (h); -17% on DNMT3b; 17% at TAF1(1) (h) bromodomain; 52% at CYP2C8 (setting [5]); 19% in series [2] (10 μM). For the same molecule, the inhibition at 10 µM at JARID1C (h) was -13%; in the series on H3K27 me3, -7%. In addition, the percent of control response at 10 µM at Chemokine CX3CR1 was 5%. For the same molecule, the inhibition at 1 µM on CYP2C8 (setting [4]) is 12 to 24%; on CYP2C8 (setting [5]) it was 12%. Further, in series [3], the remaining activity at 10 µM came to 3%. For the same molecule, the “% Inhibition of Control Values” in [1] was found to be 18%. The half-maximal effective concentration (EC50) with Hs 852.T is 15.4 µM. Further, the 50% growth inhibitory concentration (GI50) in the series on Hs 852.T is 14.7 µM. Further, the IC50 in the series on Hs 852.T came out at 15.4 µM.

`Nc1ncnc2c1ncn2[C@@H]1O[C@H](CSCC[C@H](N)C(=O)O)[C@@H](O)[C@H]1O` [SAH]: the IC50 at DNMT3b (read-out: Reference IC50) came out at 0.094 µM.

With `CC(C)=CCC[C@H](CO)[C@@H]1CC[C@@H](C)c2c1cc(C)c(O)c2O` [Compound 1, 7,8,18-trihydroxyserrulat-14-ene], the inhibition at 10 µM is 38% on PB1(3) (h) bromodomain; 10% on DNMT1 (h); -3% on DNMT3b; 48% on TAF1(1) (h) bromodomain; 76% at CYP2C8 (setting [5]); 76% in [2] (10 μM). Moreover, the inhibition at 10 µM on JARID1C (h) was 49%; with H3K27 me3 it was -8%. For the same molecule, the percent of control response at 10 µM on Chemokine CX3CR1 was -1%. Also, the figures for the inhibition at 1 µM at CYP2C8 (setting [4]) and on CYP2C8 (setting [5]) were 12 to 24% and 14%, respectively. Further, in series [2] (10 μM), the “% Inhibition of Control Specific Binding” value is “significant inhibitory activity”. Besides, the IC50 is 3.9 µM in series [2] (Table 9, inhibition/concentration-response curve, read-out: IC50) and 2.56 µM with Hs 852.T. Besides, in series [3], the remaining activity at 10 µM came out at 20%. In addition, in series [1], the “% Inhibition of Control Values” is given as 13%. Further, the “Relative cell count (%) Mean” value with Hs 852.T (3.00E+00 microM) is 41.6%; in the series on Hs 852.T (3.00E+01 microM) it was 2.7%; with Hs 852.T (3.01E−01 microM), 95.3%; in the series on Hs 852.T (3.01E−02 microM), 94.5%; in the series on Hs 852.T (3.02E−03 microM), 104.5%; in the series on Hs 852.T (9.49E+00 microM), 13.1%. Besides, the “Relative cell count (%) Mean” value in the series on Hs 852.T (9.51E−01 microM) was 85.5%; with Hs 852.T (9.52E−02 microM), 92.2%; with Hs 852.T (9.53E−03 microM) it was 100.2%; in the series on Hs 852.T (9.55E−04 microM) it was 104.3%. Further, the EC50 with Hs 852.T turned out to be 2.49 µM. The 50% growth inhibitory concentration (GI50) in the series with Hs 852.T was found to be 2.42 µM.
